Source: patent US20110312956A1, “ARYLINDENOPYRIMIDINES WITH REDUCED hERG CHANNEL BINDING” (priority 2010, published 2011)
Read-outs that look alike come from different tables or passages of the source.

Legend:
hERG = target: T1, hERG (Homo sapiens, UniProt Q12809); test: hERG channel binding assay ([3H]astemizole displacement, HEK293 membranes); details: probe [3H]astemizole, at 10 μM, read-out: hERG binding (percent inhibition of [3H]astemizole binding)
T1 construct: expressed in transfected cells; host or cells: HEK293 cells, stably transfected; membranes used
Procedure: (§1) A hERG binding assay is a primary screening method used to evaluate potential activity of a compound against the hERG potassium channel. The affinity of a compound for the hERG channel is measured in vitro by examining displacement of tritiated-[^3H]astemizole, a high affinity hERG channel ligand. In this assay, membranes from HEK293 cells stably transfected with the human hERG channel cDNA are incubated with a range of concentrations of each test compound, vehicle (10% DMSO), or a positive control and [^3H]astemizole.
After a 1-hr incubation, the membranes are harvested onto GF/B filters, the filters dried and the radioactivity is measured. For each test compound, percent inhibition of [^3H]astemizole binding is calculated relative to control binding and IC50 values determined by linear regression. Each assay includes a positive control (i.e., Cisapride) that is tested in parallel with test compounds. At present, there is no gold standard preclinical test available to predict QT prolongation in humans. Therefore to assess potential cardiotoxicity, cardiovascular effects are evaluated preclinically in several different tests including the hERG channel binding assay.
hERG Channel Binding Assay
In the hERG channel binding assay, the ability of test compounds to displace ^3H-astemizole (a high affinity hERG channel ligand) is measured.
as §1, with “[^3H]astemizole. After a 1-hr incubation, the membranes are harvested onto GF/B filters, the filters dried and the radioactivity is measured.” for “[^3H]astemizole.”
For each test compound, percent inhibition of [^3H]astemizole binding is calculated relative to control binding and IC50 values determined by linear regression. Each assay includes a positive control (i.e., Cisapride) that is tested in parallel with test compounds.

[1] = target: T2, human A2a adenosine receptor (Homo sapiens, UniProt P29274); test: Ligand binding assay for adenosine A2a receptor ([3H]CGS21680, HEK293 plasma membrane)
T2 construct: purchased PerkinElmer RB-HA2a; host or cells: HEK293 cell plasma membranes

[2] = radioligand [3H]CGS21680, read-out: Ki A2a binding

T1 sequence (Q12809 whole entry): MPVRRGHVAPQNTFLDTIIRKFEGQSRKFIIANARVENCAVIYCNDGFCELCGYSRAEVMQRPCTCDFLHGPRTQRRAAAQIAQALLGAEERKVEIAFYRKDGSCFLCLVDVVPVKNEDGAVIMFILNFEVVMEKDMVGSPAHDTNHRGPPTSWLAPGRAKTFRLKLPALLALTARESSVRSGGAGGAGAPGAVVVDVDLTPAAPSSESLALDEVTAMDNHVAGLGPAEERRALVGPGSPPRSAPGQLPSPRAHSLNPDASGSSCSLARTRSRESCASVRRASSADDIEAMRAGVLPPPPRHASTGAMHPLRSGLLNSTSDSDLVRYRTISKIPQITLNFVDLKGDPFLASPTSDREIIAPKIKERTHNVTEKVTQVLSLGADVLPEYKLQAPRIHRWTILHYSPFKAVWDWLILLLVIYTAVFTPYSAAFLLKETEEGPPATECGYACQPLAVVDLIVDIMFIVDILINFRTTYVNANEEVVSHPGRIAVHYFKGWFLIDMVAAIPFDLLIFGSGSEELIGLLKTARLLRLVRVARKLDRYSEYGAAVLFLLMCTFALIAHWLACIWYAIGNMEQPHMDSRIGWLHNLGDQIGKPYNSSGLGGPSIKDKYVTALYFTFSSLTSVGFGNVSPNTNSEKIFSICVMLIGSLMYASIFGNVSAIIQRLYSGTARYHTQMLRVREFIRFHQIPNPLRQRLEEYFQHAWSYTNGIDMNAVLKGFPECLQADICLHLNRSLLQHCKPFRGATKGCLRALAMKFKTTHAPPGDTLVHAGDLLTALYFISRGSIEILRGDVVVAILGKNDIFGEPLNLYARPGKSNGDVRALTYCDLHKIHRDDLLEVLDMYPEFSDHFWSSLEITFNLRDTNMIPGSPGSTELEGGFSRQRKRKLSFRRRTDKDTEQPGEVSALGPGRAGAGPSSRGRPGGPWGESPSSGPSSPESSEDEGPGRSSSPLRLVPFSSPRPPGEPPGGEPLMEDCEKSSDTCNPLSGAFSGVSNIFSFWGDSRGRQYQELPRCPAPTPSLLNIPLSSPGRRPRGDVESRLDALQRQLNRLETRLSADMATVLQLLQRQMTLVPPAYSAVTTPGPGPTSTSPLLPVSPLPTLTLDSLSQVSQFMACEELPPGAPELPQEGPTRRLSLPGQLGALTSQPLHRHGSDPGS
T2 sequence (P29274 whole entry): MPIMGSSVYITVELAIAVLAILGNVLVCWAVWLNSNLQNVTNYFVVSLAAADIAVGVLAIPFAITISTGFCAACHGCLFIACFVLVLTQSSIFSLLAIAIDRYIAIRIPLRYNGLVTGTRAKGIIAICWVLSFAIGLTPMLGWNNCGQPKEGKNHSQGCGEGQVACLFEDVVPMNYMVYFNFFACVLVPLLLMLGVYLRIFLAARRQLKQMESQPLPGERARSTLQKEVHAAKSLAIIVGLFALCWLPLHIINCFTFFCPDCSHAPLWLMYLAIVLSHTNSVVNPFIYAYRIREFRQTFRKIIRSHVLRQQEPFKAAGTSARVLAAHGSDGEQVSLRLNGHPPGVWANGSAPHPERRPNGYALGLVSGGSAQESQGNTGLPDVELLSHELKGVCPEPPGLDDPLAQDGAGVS

Row | Ki [1, 2] | Ki [1] | Compound | inhibition at 1 h, 10 µM (hERG)
1 | 6.69 nM |  | Nc1nc(-c2ccccc2)c2c(n1)-c1cc(CN3CCCC3)ccc1C2=O [Compound 1] | 1.4%
2 |  | 10.2 nM | Nc1nc(-c2ccccc2)c2c(n1)-c1cc(CNCc3ccccn3)ccc1C2=O [Compound 2] | 34.5%
3 | 9.4 nM |  | Nc1nc(-c2ccccc2)c2c(n1)-c1cc(CN3CCC(=O)CC3)ccc1C2=O [Compound 3] | 13.8%
4 | 7.9 nM |  | Nc1nc(-c2ccccc2)c2c(n1)-c1cc(CN3CCC(O)C3)ccc1C2=O (stereo not drawn) [Compound 4] | 27.8%
5 | 5.8 nM |  | Nc1nc(-c2ccccc2)c2c(n1)-c1cc(CN3CCC(O)CC3)ccc1C2=O [Compound 5] | 26.2%
6 | 5.39 nM |  | Nc1nc(-c2ccccc2)c2c(n1)-c1cc(CN3CCOCC3)ccc1C2=O [Compound 6] | -12.5%
